ChEMBL document CHEMBL4507280 (2021)

Key:
[1] = molecular target: Mitogen-activated protein kinase kinase kinase 2 (Homo sapiens) (UniProt Q9Y2U5); details: Compound concentration 1000.0 nM
[2] = molecular target: Serine/threonine-protein kinase 17B (Homo sapiens) (UniProt O94768); details: Compound concentration 1000.0 nM
[3] = molecular target: Misshapen-like kinase 1 (Homo sapiens) (UniProt Q8N4C8); details: Compound concentration 1000.0 nM
[4] = molecular target: Glycogen synthase kinase-3 alpha (Homo sapiens) (UniProt P49840); details: Compound concentration 1000.0 nM
[5] = molecular target: Tyrosine-protein kinase TXK (Homo sapiens) (UniProt P42681); details: Compound concentration 1000.0 nM
[6] = molecular target: Ephrin type-A receptor 8 (Homo sapiens) (UniProt P29322); details: Compound concentration 1000.0 nM
[7] = molecular target: GABA-A receptor; anion channel (Rattus norvegicus) (UniProt O09028+P15431+P18506+P18508+P19969+P20236+P23574+P23576+P28471+P28473+P30191+P62813+P63079+P63138+Q91ZM7+Q9ES14); details: Compound concentration 10.0 uM
[8] = molecular target: Rhodopsin kinase GRK7 (Homo sapiens) (UniProt Q8WTQ7); details: Compound concentration 1000.0 nM
[9] = test system: Tyrosine-protein kinase ABL1 (Homo sapiens), P00519 [Q252H]; details: Compound concentration 1000.0 nM
[10] = molecular target: Cyclin-dependent kinase 4 (Homo sapiens) (UniProt P11802); details: Compound concentration 1000.0 nM
Chain of Cyclin-dependent kinase 4 (Homo sapiens) (P11802 whole entry, canonical isoform): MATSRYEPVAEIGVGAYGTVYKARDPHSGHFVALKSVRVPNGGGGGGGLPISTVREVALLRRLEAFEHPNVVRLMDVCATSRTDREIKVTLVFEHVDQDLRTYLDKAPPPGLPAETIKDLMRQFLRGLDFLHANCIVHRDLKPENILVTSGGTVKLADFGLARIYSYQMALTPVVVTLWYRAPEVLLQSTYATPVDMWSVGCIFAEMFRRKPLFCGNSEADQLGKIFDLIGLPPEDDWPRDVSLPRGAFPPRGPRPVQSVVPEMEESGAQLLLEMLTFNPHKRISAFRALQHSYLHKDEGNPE

[11] = test system: Phosphatidylinositol 4,5-bisphosphate 3-kinase catalytic subunit alpha isoform (Homo sapiens), P42336 [Q546K]; details: Compound concentration 1000.0 nM
[12] = molecular target: Ribosomal protein S6 kinase alpha-2 (Homo sapiens) (UniProt Q15349); details: Compound concentration 1000.0 nM
[13] = molecular target: Dual specificity mitogen-activated protein kinase kinase 3 (Homo sapiens) (UniProt P46734); details: Compound concentration 1000.0 nM
Chain of Dual specificity mitogen-activated protein kinase kinase 3 (Homo sapiens) (P46734 whole entry): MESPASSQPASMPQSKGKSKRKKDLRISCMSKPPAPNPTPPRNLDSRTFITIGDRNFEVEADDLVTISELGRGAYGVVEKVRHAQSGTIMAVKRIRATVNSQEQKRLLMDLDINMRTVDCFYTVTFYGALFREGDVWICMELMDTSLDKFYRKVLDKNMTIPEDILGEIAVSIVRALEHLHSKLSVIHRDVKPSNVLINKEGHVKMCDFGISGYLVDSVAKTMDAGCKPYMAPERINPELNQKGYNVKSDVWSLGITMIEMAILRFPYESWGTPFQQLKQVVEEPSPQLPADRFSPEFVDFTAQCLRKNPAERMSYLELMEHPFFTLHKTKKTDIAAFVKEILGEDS

[14] = molecular target: Non-receptor tyrosine-protein kinase TYK2 (Homo sapiens) (UniProt P29597); details: Compound concentration 1000.0 nM
[15] = molecular target: Cyclin-dependent kinase 2 homolog (Plasmodium falciparum (isolate 3D7)) (UniProt P61075); details: Compound concentration 1000.0 nM
[16] = molecular target: Insulin-like growth factor 1 receptor (Homo sapiens) (UniProt P08069); details: Compound concentration 1000.0 nM
Chain of Insulin-like growth factor 1 receptor (Homo sapiens) (P08069 31-736 limits assumed): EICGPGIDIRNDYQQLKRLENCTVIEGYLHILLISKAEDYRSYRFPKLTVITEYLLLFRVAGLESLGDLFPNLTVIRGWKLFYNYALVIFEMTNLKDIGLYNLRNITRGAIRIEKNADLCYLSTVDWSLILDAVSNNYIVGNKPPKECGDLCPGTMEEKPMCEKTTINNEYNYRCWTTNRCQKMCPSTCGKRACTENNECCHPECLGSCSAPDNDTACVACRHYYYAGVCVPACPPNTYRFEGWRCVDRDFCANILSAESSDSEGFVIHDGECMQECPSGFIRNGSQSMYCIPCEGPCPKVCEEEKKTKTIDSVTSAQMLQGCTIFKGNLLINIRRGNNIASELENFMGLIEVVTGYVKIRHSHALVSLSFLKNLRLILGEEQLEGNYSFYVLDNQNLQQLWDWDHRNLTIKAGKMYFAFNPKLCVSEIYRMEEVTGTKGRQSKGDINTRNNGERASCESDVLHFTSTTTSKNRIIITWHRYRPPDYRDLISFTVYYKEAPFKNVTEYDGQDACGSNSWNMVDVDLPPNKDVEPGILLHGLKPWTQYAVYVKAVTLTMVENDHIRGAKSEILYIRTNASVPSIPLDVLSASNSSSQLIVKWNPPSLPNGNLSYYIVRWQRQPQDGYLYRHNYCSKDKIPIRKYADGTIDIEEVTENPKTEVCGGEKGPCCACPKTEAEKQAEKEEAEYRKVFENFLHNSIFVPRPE
Chain of Insulin-like growth factor 1 receptor (Homo sapiens) (P08069 741-1367 limits assumed): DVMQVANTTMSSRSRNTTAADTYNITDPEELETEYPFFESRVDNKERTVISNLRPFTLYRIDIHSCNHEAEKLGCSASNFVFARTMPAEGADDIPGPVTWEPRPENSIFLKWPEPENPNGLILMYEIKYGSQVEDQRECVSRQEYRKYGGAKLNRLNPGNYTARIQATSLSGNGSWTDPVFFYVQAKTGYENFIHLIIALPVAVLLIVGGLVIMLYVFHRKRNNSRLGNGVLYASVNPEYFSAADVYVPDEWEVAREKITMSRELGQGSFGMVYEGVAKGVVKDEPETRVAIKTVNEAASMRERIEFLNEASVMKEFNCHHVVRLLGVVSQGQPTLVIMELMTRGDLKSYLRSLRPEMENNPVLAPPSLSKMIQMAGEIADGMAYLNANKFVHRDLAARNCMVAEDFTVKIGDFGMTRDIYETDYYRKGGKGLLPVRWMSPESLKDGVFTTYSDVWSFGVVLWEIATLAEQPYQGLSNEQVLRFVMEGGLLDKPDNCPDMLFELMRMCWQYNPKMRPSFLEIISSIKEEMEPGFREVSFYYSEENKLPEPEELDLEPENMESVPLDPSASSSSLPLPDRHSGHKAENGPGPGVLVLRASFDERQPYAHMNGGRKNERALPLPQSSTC

[17] = molecular target: Alpha-2B adrenergic receptor (Homo sapiens) (UniProt P18089); details: Compound concentration 10.0 uM
[18] = molecular target: Serine/threonine-protein kinase PLK4 (Homo sapiens) (UniProt O00444); details: Compound concentration 1000.0 nM
[19] = molecular target: Mitogen-activated protein kinase kinase kinase kinase 4 (Homo sapiens) (UniProt O95819); details: Compound concentration 1000.0 nM
[20] = molecular target: Activin receptor type-1-like (Homo sapiens) (UniProt P37023); details: Compound concentration 1000.0 nM
[21] = molecular target: Epidermal growth factor receptor (Homo sapiens) (UniProt P00533); details: Compound concentration 1000.0 nM
[22] = molecular target: Mitogen-activated protein kinase kinase kinase 19 (Homo sapiens) (UniProt Q56UN5); details: Compound concentration 1000.0 nM
[23] = molecular target: Serine/threonine-protein kinase 32B (Homo sapiens) (UniProt Q9NY57); details: Compound concentration 1000.0 nM
Chain of Serine/threonine-protein kinase 32B (Homo sapiens) (Q9NY57 whole entry): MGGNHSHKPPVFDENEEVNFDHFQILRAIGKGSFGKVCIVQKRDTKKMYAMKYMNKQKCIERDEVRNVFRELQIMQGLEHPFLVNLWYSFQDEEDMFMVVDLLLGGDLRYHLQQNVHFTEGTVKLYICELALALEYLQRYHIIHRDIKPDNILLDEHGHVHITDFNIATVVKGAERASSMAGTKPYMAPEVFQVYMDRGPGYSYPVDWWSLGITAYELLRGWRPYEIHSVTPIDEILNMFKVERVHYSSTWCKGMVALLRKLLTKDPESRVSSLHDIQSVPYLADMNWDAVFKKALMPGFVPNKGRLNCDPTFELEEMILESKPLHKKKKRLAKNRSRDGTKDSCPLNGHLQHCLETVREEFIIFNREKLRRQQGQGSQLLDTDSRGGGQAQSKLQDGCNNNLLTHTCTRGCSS

[24] = molecular target: RAF proto-oncogene serine/threonine-protein kinase (Homo sapiens) (UniProt P04049); details: Compound concentration 1000.0 nM
[25] = molecular target: Casein kinase I isoform gamma-1 (Homo sapiens) (UniProt Q9HCP0); details: Compound concentration 1000.0 nM
[26] = molecular target: Serine/threonine-protein kinase 10 (Homo sapiens) (UniProt O94804); details: Compound concentration 1000.0 nM
[27] = molecular target: cAMP-dependent protein kinase catalytic subunit PRKX (Homo sapiens) (UniProt P51817); details: Compound concentration 1000.0 nM
[28] = molecular target: Tyrosine-protein kinase JAK1 (Homo sapiens) (UniProt P23458); details: Compound concentration 1000.0 nM
[29] = molecular target: Casein kinase I isoform delta (Homo sapiens) (UniProt P48730); details: Compound concentration 1000.0 nM
Chain of Casein kinase I isoform delta (Homo sapiens) (P48730 whole entry, looked up, canonical isoform): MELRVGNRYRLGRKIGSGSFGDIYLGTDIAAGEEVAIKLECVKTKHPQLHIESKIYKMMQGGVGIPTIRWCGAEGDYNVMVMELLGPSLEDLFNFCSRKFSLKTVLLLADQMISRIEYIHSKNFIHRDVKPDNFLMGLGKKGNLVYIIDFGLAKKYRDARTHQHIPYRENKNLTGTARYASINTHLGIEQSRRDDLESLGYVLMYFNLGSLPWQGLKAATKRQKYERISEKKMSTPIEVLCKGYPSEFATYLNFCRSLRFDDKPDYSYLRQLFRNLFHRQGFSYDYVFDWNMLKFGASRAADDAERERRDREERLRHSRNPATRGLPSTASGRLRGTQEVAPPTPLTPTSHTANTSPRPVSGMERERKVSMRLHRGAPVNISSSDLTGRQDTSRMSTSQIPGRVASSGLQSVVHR

[30] = molecular target: Mitogen-activated protein kinase kinase kinase 1 (Homo sapiens) (UniProt Q13233); details: Compound concentration 1000.0 nM
[31] = molecular target: Leukocyte tyrosine kinase receptor (Homo sapiens) (UniProt P29376); details: Compound concentration 1000.0 nM
Chain of Leukocyte tyrosine kinase receptor (Homo sapiens) (P29376 whole entry): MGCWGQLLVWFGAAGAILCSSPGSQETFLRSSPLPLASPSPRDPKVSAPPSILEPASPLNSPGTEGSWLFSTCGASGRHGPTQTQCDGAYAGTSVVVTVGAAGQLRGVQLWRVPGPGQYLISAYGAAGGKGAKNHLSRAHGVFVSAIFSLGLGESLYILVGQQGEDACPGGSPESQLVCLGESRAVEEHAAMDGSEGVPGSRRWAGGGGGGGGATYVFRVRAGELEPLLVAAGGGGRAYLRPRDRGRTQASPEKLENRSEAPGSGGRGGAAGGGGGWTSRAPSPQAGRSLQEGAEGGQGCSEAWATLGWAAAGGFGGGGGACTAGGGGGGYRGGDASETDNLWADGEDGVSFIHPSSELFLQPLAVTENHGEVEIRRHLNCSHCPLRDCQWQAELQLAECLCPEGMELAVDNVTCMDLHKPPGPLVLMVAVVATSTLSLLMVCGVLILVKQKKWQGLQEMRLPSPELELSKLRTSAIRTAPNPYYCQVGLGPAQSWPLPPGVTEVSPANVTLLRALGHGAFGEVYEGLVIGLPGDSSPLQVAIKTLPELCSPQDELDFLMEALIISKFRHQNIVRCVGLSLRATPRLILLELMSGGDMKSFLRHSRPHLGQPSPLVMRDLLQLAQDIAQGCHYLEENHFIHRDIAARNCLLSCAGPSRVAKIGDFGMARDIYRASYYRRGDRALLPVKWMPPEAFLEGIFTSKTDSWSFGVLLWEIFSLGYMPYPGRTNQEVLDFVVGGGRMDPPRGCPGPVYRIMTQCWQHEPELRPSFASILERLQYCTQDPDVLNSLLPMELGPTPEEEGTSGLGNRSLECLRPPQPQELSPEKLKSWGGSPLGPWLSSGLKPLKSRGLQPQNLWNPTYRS

[32] = molecular target: Serine/threonine-protein kinase D1 (Homo sapiens) (UniProt Q15139); details: Compound concentration 1000.0 nM
[33] = molecular target: Tyrosine-protein kinase ZAP-70 (Homo sapiens) (UniProt P43403); details: Compound concentration 1000.0 nM
[34] = test system: Proto-oncogene tyrosine-protein kinase receptor Ret (Homo sapiens), P07949 [M918T]; details: Compound concentration 1000.0 nM
[35] = molecular target: T1, Alpha-1B adrenergic receptor (Homo sapiens) (UniProt P35368); details: Compound concentration 10.0 uM
T1 sequence (whole entry): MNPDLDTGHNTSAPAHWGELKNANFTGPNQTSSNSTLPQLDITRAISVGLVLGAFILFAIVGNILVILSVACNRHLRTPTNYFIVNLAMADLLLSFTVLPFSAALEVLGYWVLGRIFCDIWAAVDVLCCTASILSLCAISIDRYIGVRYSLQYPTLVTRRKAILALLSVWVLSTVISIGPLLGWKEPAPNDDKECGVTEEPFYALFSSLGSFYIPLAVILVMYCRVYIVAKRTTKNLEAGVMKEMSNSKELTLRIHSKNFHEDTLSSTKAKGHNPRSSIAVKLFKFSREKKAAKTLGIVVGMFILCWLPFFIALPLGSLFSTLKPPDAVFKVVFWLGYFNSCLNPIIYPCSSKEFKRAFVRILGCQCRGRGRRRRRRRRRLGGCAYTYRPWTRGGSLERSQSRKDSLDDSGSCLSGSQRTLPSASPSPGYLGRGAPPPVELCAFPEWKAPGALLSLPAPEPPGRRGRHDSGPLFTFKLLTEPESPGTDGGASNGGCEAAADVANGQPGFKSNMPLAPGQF

[36] = molecular target: Mast/stem cell growth factor receptor Kit (Homo sapiens) (UniProt P10721); details: Compound concentration 1000.0 nM
[37] = molecular target: Cyclin-dependent kinase 11B (Homo sapiens) (UniProt P21127); details: Compound concentration 1000.0 nM

Chain of Misshapen-like kinase 1 (Homo sapiens) (Q8N4C8 whole entry, looked up): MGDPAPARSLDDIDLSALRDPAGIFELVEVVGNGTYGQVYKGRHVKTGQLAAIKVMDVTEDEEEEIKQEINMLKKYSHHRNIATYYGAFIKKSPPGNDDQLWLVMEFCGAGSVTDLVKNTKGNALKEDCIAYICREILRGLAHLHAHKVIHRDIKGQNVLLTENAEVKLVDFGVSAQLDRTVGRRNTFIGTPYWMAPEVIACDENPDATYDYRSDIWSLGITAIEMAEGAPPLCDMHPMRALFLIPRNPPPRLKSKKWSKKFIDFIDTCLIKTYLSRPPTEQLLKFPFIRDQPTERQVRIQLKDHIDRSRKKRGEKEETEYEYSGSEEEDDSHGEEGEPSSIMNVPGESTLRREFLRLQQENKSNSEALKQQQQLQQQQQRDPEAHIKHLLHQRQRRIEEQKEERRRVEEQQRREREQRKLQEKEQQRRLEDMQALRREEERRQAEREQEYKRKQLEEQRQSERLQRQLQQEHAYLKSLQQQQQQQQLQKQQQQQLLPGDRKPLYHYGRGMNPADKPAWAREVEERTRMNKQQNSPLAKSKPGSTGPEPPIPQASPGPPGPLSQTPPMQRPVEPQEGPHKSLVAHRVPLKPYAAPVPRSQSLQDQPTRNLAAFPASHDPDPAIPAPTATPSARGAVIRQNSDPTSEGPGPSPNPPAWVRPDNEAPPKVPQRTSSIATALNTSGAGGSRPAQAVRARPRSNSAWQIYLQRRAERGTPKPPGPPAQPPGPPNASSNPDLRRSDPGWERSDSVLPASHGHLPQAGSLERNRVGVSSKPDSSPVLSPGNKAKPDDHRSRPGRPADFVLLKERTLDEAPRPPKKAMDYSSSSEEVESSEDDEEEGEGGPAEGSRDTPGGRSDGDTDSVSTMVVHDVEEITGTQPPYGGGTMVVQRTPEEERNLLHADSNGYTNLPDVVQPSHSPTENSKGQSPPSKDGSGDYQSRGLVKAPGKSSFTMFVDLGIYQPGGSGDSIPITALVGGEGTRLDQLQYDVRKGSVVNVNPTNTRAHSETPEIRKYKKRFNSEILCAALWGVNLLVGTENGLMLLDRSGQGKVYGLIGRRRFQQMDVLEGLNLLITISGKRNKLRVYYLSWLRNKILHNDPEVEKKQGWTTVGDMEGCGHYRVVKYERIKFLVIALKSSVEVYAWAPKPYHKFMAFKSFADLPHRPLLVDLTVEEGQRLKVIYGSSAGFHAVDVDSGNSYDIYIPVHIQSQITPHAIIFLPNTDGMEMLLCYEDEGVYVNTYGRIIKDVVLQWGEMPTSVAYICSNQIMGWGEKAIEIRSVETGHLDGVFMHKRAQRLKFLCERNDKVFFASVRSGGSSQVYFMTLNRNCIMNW

CCC(=O)N[C@H]1CC[C@@H](C(=O)N(C)c2ccc(-c3nc4ccccc4o3)cc2)C1 [BI 99179]
inactive: residual activity [1] 87% | residual activity [2] 84% | residual activity [3] 89% | residual activity [4] 100% | residual activity [5] 100% | residual activity [6] 96% | inhibition [7] 21.1% | residual activity [8] 82% | residual activity [9] 78% | residual activity [10] 78% | residual activity [11] 91% | residual activity [12] 100% | residual activity [13] 77% | residual activity [14] 95% | residual activity [15] 80% | residual activity [16] 100% | inhibition [17] 5.31% | residual activity [18] 78% | residual activity [19] 91% | residual activity [20] 77% | residual activity [21] 100% | residual activity [22] 69% | residual activity [23] 98% | residual activity [24] 100% | residual activity [25] 90% | residual activity [26] 100% | residual activity [27] 91% | residual activity [28] 100% | residual activity [29] 96% | residual activity [30] 73% | residual activity [31] 100% | residual activity [32] 100% | residual activity [33] 82% | residual activity [34] 100% | inhibition [35] -6.32% | residual activity [36] 84% | residual activity [37] 99%

CCC(=O)N[C@@H]1CC[C@H](C(=O)N(C)c2ccc(-c3nc4ccccc4o3)cc2)C1 [BI 99990]
inactive: residual activity [1] 100% | residual activity [2] 99% | residual activity [3] 96% | residual activity [4] 84% | residual activity [5] 77% | residual activity [6] 100% | inhibition [7] 0.94% | residual activity [8] 93% | residual activity [9] 87% | residual activity [10] 97% | residual activity [11] 100% | residual activity [12] 100% | residual activity [13] 91% | residual activity [14] 100% | residual activity [15] 100% | residual activity [16] 100% | inhibition [17] 7.05% | residual activity [18] 100% | residual activity [19] 100% | residual activity [20] 100% | residual activity [21] 100% | residual activity [22] 92% | residual activity [23] 71% | residual activity [24] 94% | residual activity [25] 100% | residual activity [26] 89% | residual activity [27] 100% | residual activity [28] 100% | residual activity [29] 100% | residual activity [30] 74% | residual activity [31] 93% | residual activity [32] 98% | residual activity [33] 100% | residual activity [34] 100% | inhibition [35] -6.47% | residual activity [36] 93% | residual activity [37] 100%
